From patent publication US9149038B2, “4-amino-6-(heterocyclic)picolinates and 6-amino-2-(heterocyclic)pyrimidine-4-carboxylates and their use as herbicides” (Dow AgroSciences LLC, priority 2013, dated 2015)
Read-outs that look alike come from different tables or passages of the source.

Assays:
[1] = tested on: Key Broadleaf Weed and Crop Species; test: Post-Emergent Test II: postemergent herbicidal activity, visual rating after 14 d (Table 7); format: in vivo; details: post-emergence, 336 h; for pest or weed control at 35 g/ha: 35 g ai/ha; for pest or weed control at 70 g/ha: 70 g ai/ha; for pest or weed control at 140 g/ha: 140 g ai/ha
Outline: (§1)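 Plants were raised in a greenhouse for 7-21 d and treated once at the first or second true leaf stage. Compounds, dissolved in 97:3 acetone:DMSO then diluted into an aqueous acetone/isopropanol/crop oil/Triton X-155 carrier, were applied by overhead track sprayer at 187 L/ha. After 14 d with subirrigation, injury was scored visually from 0 (none) to 100 (complete kill).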

[2] = tested on: Key Grass and Sedge Weeds as well as Grass Crops; test: Post-Emergent Test II: postemergent herbicidal activity, visual rating after 14 d (Table 8); format: in vivo; details: post-emergence, 336 h; for pest or weed control at 35 g/ha: 35 g ai/ha; for pest or weed control at 70 g/ha: 70 g ai/ha; for pest or weed control at 140 g/ha: 140 g ai/ha
Outline: as §1

[3] = lambsquarters (Chenopodium album), read-out: Visual Growth Reduction (%) 14 Days After Application CHEAL
[4] = oilseed rape, canola (Brassica napus), read-out: Visual Growth Reduction (%) 14 Days After Application BRSNN
[5] = redroot pigweed (Amaranthus retroflexus), read-out: Visual Growth Reduction (%) 14 Days After Application AMARE
[6] = sunflower (Helianthus annuus), read-out: Visual Growth Reduction (%) 14 Days After Application HELAN
[7] = velvetleaf (Abutilon theophrasti), read-out: Visual Growth Reduction (%) 14 Days After Application ABUTH
[8] = wild poinsettia (Euphorbia heterophylla), read-out: Visual Growth Reduction (%) 14 Days After Application EPHHL
[9] = barnyardgrass (Echinochloa crus-galli), read-out: Visual Growth Reduction (%) 14 Days After Application ECHCG
[10] = giant foxtail (Setaria faberi), read-out: Visual Growth Reduction (%) 14 Days After Application SETFA
[11] = maize, corn (Zea mays), read-out: Visual Growth Reduction (%) 14 Days After Application ZEAMX
[12] = rice (Oryza sativa), read-out: Visual Growth Reduction (%) 14 Days After Application ORYSA
[13] = wheat, spring (Triticum aestivum), read-out: Visual Growth Reduction (%) 14 Days After Application TRZAS
[14] = yellow nutsedge (Cyperus esculentus), read-out: Visual Growth Reduction (%) 14 Days After Application CYPES

SMILES	pest or weed control at 35 g/ha [1, 3] [%]	pest or weed control at 70 g/ha [1, 3] [%]	pest or weed control at 140 g/ha [1, 3] [%]	pest or weed control at 35 g/ha [1, 4] [%]	pest or weed control at 70 g/ha [1, 4] [%]	pest or weed control at 140 g/ha [1, 4] [%]	pest or weed control at 35 g/ha [1, 5] [%]	pest or weed control at 70 g/ha [1, 5] [%]	pest or weed control at 140 g/ha [1, 5] [%]	pest or weed control at 35 g/ha [1, 6] [%]	pest or weed control at 70 g/ha [1, 6] [%]	pest or weed control at 140 g/ha [1, 6] [%]	pest or weed control at 35 g/ha [1, 7] [%]	pest or weed control at 70 g/ha [1, 7] [%]	pest or weed control at 140 g/ha [1, 7] [%]	pest or weed control at 35 g/ha [1, 8] [%]	pest or weed control at 70 g/ha [1, 8] [%]	pest or weed control at 140 g/ha [1, 8] [%]	pest or weed control at 35 g/ha [2, 9] [%]	pest or weed control at 70 g/ha [2, 9] [%]	other results
COC(=O)c1nc(-c2cccc3c2OC(F)(F)O3)c(F)c(N)c1Cl [Compound 73]	95 to 100	95 to 100	95 to 100	85 to 94	95 to 100	95 to 100	95 to 100	95 to 100	95 to 100	75 to 84	85 to 94	95 to 100	75 to 84	75 to 84	85 to 94	0 to 29	0 to 29	0 to 29	0 to 29	0 to 29	pest or weed control at 140 g/ha [2, 9]: 0 to 29%; pest or weed control at 35 g/ha [2, 10]: 0 to 29%; pest or weed control at 70 g/ha [2, 10]: 0 to 29%; pest or weed control at 140 g/ha [2, 10]: 0 to 29%; pest or weed control at 35 g/ha [2, 11]: 0 to 29%; pest or weed control at 70 g/ha [2, 11]: 0 to 29%; pest or weed control at 140 g/ha [2, 11]: 0 to 29%; pest or weed control at 35 g/ha [2, 12]: 0 to 29%; pest or weed control at 70 g/ha [2, 12]: 0 to 29%; pest or weed control at 140 g/ha [2, 12]: 0 to 29%; pest or weed control at 35 g/ha [2, 13]: 0 to 29%; pest or weed control at 70 g/ha [2, 13]: 0 to 29%; pest or weed control at 140 g/ha [2, 13]: 0 to 29%; pest or weed control at 35 g/ha [2, 14]: 0 to 29%; pest or weed control at 70 g/ha [2, 14]: 45 to 59%; pest or weed control at 140 g/ha [2, 14]: 45 to 59%
Nc1c(F)c(-c2cccc3c2OC(F)(F)O3)nc(C(=O)O)c1Cl [Compound 74]	85 to 94	95 to 100	95 to 100	75 to 84	85 to 94	95 to 100	95 to 100	95 to 100	95 to 100	75 to 84	75 to 84	85 to 94	0 to 29	30 to 44	45 to 59	0 to 29	0 to 29	0 to 29	0 to 29	0 to 29	pest or weed control at 140 g/ha [2, 9]: 0 to 29%; pest or weed control at 35 g/ha [2, 10]: 0 to 29%; pest or weed control at 70 g/ha [2, 10]: 0 to 29%; pest or weed control at 140 g/ha [2, 10]: 0 to 29%; pest or weed control at 35 g/ha [2, 12]: 0 to 29%; pest or weed control at 70 g/ha [2, 12]: 0 to 29%; pest or weed control at 140 g/ha [2, 12]: 0 to 29%; pest or weed control at 35 g/ha [2, 13]: 0 to 29%; pest or weed control at 70 g/ha [2, 13]: 0 to 29%; pest or weed control at 140 g/ha [2, 13]: 0 to 29%; pest or weed control at 35 g/ha [2, 14]: 0 to 29%; pest or weed control at 70 g/ha [2, 14]: 0 to 29%; pest or weed control at 140 g/ha [2, 14]: 0 to 29%
